# Test results taken from ChEMBL document CHEMBL1201861, “Genomics of Drug Sensitity in Cancer screening data, Wellcome Trust Sanger Institute”.
# Key:
# Assay in all cases: cells
# [1] = tested on: MCF7; assay type: functional, cell-based, Homo sapiens; conditions: Homo sapiens, MCF7;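 also: growth inhibition of human MCF7 cells, read out with a cell viability assay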
# Description: SANGER: Inhibition of human MCF7 cell growth in a cell viability assay.
# [2] = tested on: Calu-3; assay type: functional, cell-based, Homo sapiens; conditions: Homo sapiens, Calu-3;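 also: growth inhibition of human Calu-3 cells, determined with a cell viability assay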
# Description: SANGER: Inhibition of human Calu-3 cell growth in a cell viability assay.
# [3] = tested on: NCI-H1993; assay type: functional, cell-based, Homo sapiens; conditions: Homo sapiens, NCI-H1993;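 also: growth inhibition of the cancer cell line, assessed with a cell viability assay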
# Description: SANGER: Inhibition of human NCI-H1993 cell growth in a cell viability assay.
# [4] = tested on: COR-L105; assay type: functional, cell-based, Homo sapiens; conditions: Homo sapiens, COR-L105;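 also: cell growth inhibition determined with a viability assay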
# Description: SANGER: Inhibition of human COR-L105 cell growth in a cell viability assay.
# [5] = tested on: KYSE-150 cell line; assay type: functional, cell-based, Homo sapiens; conditions: Homo sapiens, KYSE-150;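 also: growth inhibition of human KYSE-150 cells, read out with a cell viability assay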
# Description: SANGER: Inhibition of human KYSE-150 cell growth in a cell viability assay.
# [6] = tested on: EW-13; assay type: functional, cell-based; conditions: Homo sapiens;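 also: growth inhibition of EW-13 cells, read out with a cell viability assay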
# Description: SANGER: Inhibition of human EW-13 cell growth in a cell viability assay.
# [7] = tested on: C3A; assay type: functional, cell-based, Homo sapiens; conditions: Homo sapiens, C3A;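 also: growth inhibition of C3A human cells, quantified with a cell viability readout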
# Description: SANGER: Inhibition of human C3A cell growth in a cell viability assay.
# [8] = tested on: OVCAR-8; assay type: functional, cell-based, Homo sapiens; conditions: Homo sapiens, OVCAR-8;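 also: growth inhibition of human OVCAR-8 cells, read out by a cell viability assay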
# Description: SANGER: Inhibition of human OVCAR-8 cell growth in a cell viability assay.
# [9] = tested on: A-375; assay type: functional, cell-based, Homo sapiens; conditions: Homo sapiens, A-375;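 also: growth inhibition of A375 cells, read out with a cell viability assay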
# Description: SANGER: Inhibition of human A375 cell growth in a cell viability assay.
# [10] = tested on: MKN-28; assay type: functional, cell-based, Homo sapiens; conditions: Homo sapiens, MKN-28;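 also: cell viability assay read-out, IC50 reflects suppression of growth of human MKN-28 cells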
# Description: SANGER: Inhibition of human MKN28 cell growth in a cell viability assay.
# [11] = tested on: SJSA-1; assay type: functional, cell-based, Homo sapiens; conditions: Homo sapiens, SJSA-1;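 also: growth inhibition of human SJSA-1 cells, read out through a cell viability measurement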
# Description: SANGER: Inhibition of human SJSA-1 cell growth in a cell viability assay.
# [12] = tested on: NCI-H2122; assay type: functional, cell-based, Homo sapiens; conditions: Homo sapiens, NCI-H2122;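 also: growth inhibition of the cells, read out with a cell viability assay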
# Description: SANGER: Inhibition of human NCI-H2122 cell growth in a cell viability assay.
# [13] = tested on: COLO-800; assay type: functional, cell-based, Homo sapiens; conditions: Homo sapiens, COLO-800;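 also: growth inhibition of COLO-800 cells, read out with a cell viability assay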
# Description: SANGER: Inhibition of human COLO-800 cell growth in a cell viability assay.
# [14] = tested on: SNU-387; assay type: functional, cell-based, Homo sapiens; conditions: Homo sapiens, SNU-387
# Description: SANGER: Inhibition of human SNU-387 cell growth in a cell viability assay.
# [15] = tested on: NCI-H2347; assay type: functional, cell-based, Homo sapiens; conditions: Homo sapiens, NCI-H2347;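 also: growth inhibition of the cell line, read out with a cell viability assay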
# Description: SANGER: Inhibition of human NCI-H2347 cell growth in a cell viability assay.
# [16] = tested on: HCC2157; assay type: functional, cell-based; conditions: Homo sapiens;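 also: growth inhibition of the cancer cell line, read out as cell viability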
# Description: SANGER: Inhibition of human HCC2157 cell growth in a cell viability assay.
# [17] = tested on: CAL-33; assay type: functional, cell-based, Homo sapiens; conditions: Homo sapiens, CAL-33;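 also: growth inhibition of CAL-33 cells, read out with a cell viability assay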
# Description: SANGER: Inhibition of human CAL-33 cell growth in a cell viability assay.
# [18] = tested on: SK-N-DZ; assay type: functional, cell-based, Homo sapiens; conditions: Homo sapiens, SK-N-DZ;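 also: growth inhibition of the cancer cell line, read out through a viability assay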
# Description: SANGER: Inhibition of human SK-N-DZ cell growth in a cell viability assay.
# [19] = tested on: AM-38; assay type: functional, cell-based, Homo sapiens; conditions: Homo sapiens, AM-38;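 also: growth inhibition of AM-38 cells of human origin, read out by a cell viability assay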
# Description: SANGER: Inhibition of human AM-38 cell growth in a cell viability assay.
# [20] = tested on: ES8; assay type: functional, cell-based, Homo sapiens; conditions: Homo sapiens, ES8;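 also: growth inhibition of human ES8 cells, read out with a cell viability assay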
# Description: SANGER: Inhibition of human ES8 cell growth in a cell viability assay.
# [21] = tested on: LU-134-A; assay type: functional, cell-based; conditions: Homo sapiens
# Description: SANGER: Inhibition of human LU-134-A cell growth in a cell viability assay.
# [22] = tested on: HT-1376; assay type: functional, cell-based, Homo sapiens; conditions: Homo sapiens, HT-1376
# Description: SANGER: Inhibition of human HT-1376 cell growth in a cell viability assay.
# [23] = tested on: SW780; assay type: functional, cell-based, Homo sapiens; conditions: Homo sapiens, SW780;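 also: growth inhibition of the cells, read out with a cell viability assay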
# Description: SANGER: Inhibition of human SW780 cell growth in a cell viability assay.
# [24] = tested on: A673; assay type: functional, cell-based, Homo sapiens; conditions: Homo sapiens, A673;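 also: growth inhibition of human A673 cells, read out through a cell viability assay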
# Description: SANGER: Inhibition of human A673 cell growth in a cell viability assay.
# [25] = tested on: HCC1954; assay type: functional, cell-based, Homo sapiens; conditions: Homo sapiens, HCC1954;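 also: growth inhibition of human HCC1954 cells, read out with a cell viability assay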
# Description: SANGER: Inhibition of human HCC1954 cell growth in a cell viability assay.
# [26] = tested on: KURAMOCHI; assay type: functional, cell-based; conditions: Homo sapiens;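 also: growth inhibition of KURAMOCHI cells, read out with a cell viability assay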
# Description: SANGER: Inhibition of human KURAMOCHI cell growth in a cell viability assay.
# [27] = tested on: SNU-449; assay type: functional, cell-based, Homo sapiens; conditions: Homo sapiens, SNU-449
# Description: SANGER: Inhibition of human SNU-449 cell growth in a cell viability assay.
# [28] = tested on: DMS-114; assay type: functional, cell-based, Homo sapiens; conditions: Homo sapiens, DMS-114
# [29] = tested on: NCI-H446; assay type: functional, cell-based; conditions: Homo sapiens;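 also: growth inhibition of NCI-H446 cells determined by a cell viability assay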
# Description: SANGER: Inhibition of human NCI-H446 cell growth in a cell viability assay.
# [30] = tested on: SW684; assay type: functional, cell-based, Homo sapiens; conditions: Homo sapiens, SW684;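 also: growth inhibition of human SW684 cells, measured by a cell viability assay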
# Description: SANGER: Inhibition of human SW684 cell growth in a cell viability assay.
# [31] = tested on: 697; assay type: functional, cell-based; conditions: Homo sapiens
# Description: SANGER: Inhibition of human 697 cell growth in a cell viability assay.
# [32] = tested on: UMC-11; assay type: functional, cell-based, Homo sapiens; conditions: Homo sapiens, UMC-11;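 also: growth inhibition of UMC-11 cells, read out with a cell viability assay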
# Description: SANGER: Inhibition of human UMC-11 cell growth in a cell viability assay.
# [33] = tested on: A2058; assay type: functional, cell-based; conditions: Homo sapiens;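 also: reduction of A2058 cell growth, read out with a viability assay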
# Description: SANGER: Inhibition of human A2058 cell growth in a cell viability assay.
# [34] = tested on: AN3-CA; assay type: functional, cell-based; conditions: Homo sapiens;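 also: growth inhibition of human AN3-CA cells measured by a cell viability assay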
# Description: SANGER: Inhibition of human AN3-CA cell growth in a cell viability assay.
# [35] = tested on: DoTc2-4510; assay type: functional, cell-based, Homo sapiens; conditions: Homo sapiens, DoTc2-4510
# [36] = tested on: TE-5; assay type: functional, cell-based, Homo sapiens; conditions: Homo sapiens, TE-5;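 also: inhibition of cell growth, read out by a cell viability assay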
# Description: SANGER: Inhibition of human TE-5 cell growth in a cell viability assay.
# [37] = tested on: NCI-H1792; assay type: functional, cell-based, Homo sapiens; conditions: Homo sapiens, NCI-H1792;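 also: growth inhibition of human NCI-H1792 cells, read out as cell viability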
# Description: SANGER: Inhibition of human NCI-H1792 cell growth in a cell viability assay.
# [38] = tested on: CAL-39; assay type: functional, cell-based, Homo sapiens; conditions: Homo sapiens, CAL-39;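 also: cell viability assay measuring growth inhibition of CAL-39 cells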
# Description: SANGER: Inhibition of human CAL-39 cell growth in a cell viability assay.
# [39] = tested on: CAPAN-1; assay type: functional, cell-based, Homo sapiens; conditions: Homo sapiens, CAPAN-1;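 also: growth suppression of CAPAN-1 cells, read out by a cell viability assay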
# Description: SANGER: Inhibition of human CAPAN-1 cell growth in a cell viability assay.
# [40] = tested on: NCI-H1299; assay type: functional, cell-based, Homo sapiens; conditions: Homo sapiens, NCI-H1299;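 also: growth inhibition of human NCI-H1299 cells, read out by a cell viability assay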
# Description: SANGER: Inhibition of human NCI-H1299 cell growth in a cell viability assay.
# [41] = tested on: LAMA-84; assay type: functional, cell-based; conditions: Homo sapiens;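 also: growth inhibition of LAMA-84 cells, read out with a cell viability assay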
# Description: SANGER: Inhibition of human LAMA-84 cell growth in a cell viability assay.
# [42] = tested on: BXPC-3; assay type: functional, cell-based, Homo sapiens; conditions: Homo sapiens, BXPC-3;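 also: growth inhibition of human BxPC-3 cells, read out by a cell viability assay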
# Description: SANGER: Inhibition of human BxPC-3 cell growth in a cell viability assay.
# [43] = tested on: TGBC24TKB; assay type: functional, cell-based, Homo sapiens; conditions: Homo sapiens, TGBC24TKB;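 also: growth inhibition of human TGBC24TKB cells, read out with a cell viability assay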
# Description: SANGER: Inhibition of human TGBC24TKB cell growth in a cell viability assay.
# [44] = tested on: GT3TKB; assay type: functional, cell-based, Homo sapiens; conditions: Homo sapiens, GT3TKB;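 also: growth inhibition of the cell line, read out with a cell viability assay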
# Description: SANGER: Inhibition of human GT3TKB cell growth in a cell viability assay.
# [45] = tested on: HuTu80; assay type: functional, cell-based, Homo sapiens, HUTU-80; conditions: Homo sapiens, HuTu80;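 also: growth inhibition of HuTu80 human cells, determined with a cell viability readout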
# Description: SANGER: Inhibition of human HUTU-80 cell growth in a cell viability assay.
# [46] = tested on: HCC1806; assay type: functional, cell-based, Homo sapiens; conditions: Homo sapiens, HCC1806;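 also: growth inhibition of the cancer cell line, determined with a cell viability assay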
# Description: SANGER: Inhibition of human HCC1806 cell growth in a cell viability assay.
# [47] = tested on: SW1573; assay type: functional, cell-based, Homo sapiens; conditions: Homo sapiens, SW1573;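 also: growth inhibition of SW1573 cells, read out with a cell viability assay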
# Description: SANGER: Inhibition of human SW1573 cell growth in a cell viability assay.
# [48] = tested on: KY821; assay type: functional, cell-based; conditions: Homo sapiens;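 also: growth inhibition of human KY821 cells, read out by a cell viability assay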
# Description: SANGER: Inhibition of human KY821 cell growth in a cell viability assay.
# [49] = tested on: EW-3; assay type: functional, cell-based; conditions: Homo sapiens;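 also: cell viability assay read-out, IC50 reflects inhibition of growth of the EW-3 cells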
# Description: SANGER: Inhibition of human EW-3 cell growth in a cell viability assay.
# [50] = tested on: EOL1; assay type: functional, cell-based; conditions: Homo sapiens;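 also: growth inhibition of EoL-1 cells, read out by a cell viability assay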
# Description: SANGER: Inhibition of human EoL-1-cell cell growth in a cell viability assay.
smiles,measurement,setting,value
O=c1cc(-c2cccc3c2Sc2ccccc2S3)oc(N2CCOCC2)c1 [KU-55933],IC50,[1],> 10 µM
same,IC50,[2],> 10 µM
same,IC50,[3],> 10 µM
same,IC50,[4],> 10 µM
same,IC50,[5],> 10 µM
same,IC50,[6],> 10 µM
same,IC50,[7],> 10 µM
same,IC50,[8],> 10 µM
same,IC50,[9],> 10 µM
same,IC50,[10],> 10 µM
same,IC50,[11],> 10 µM
same,IC50,[12],> 10 µM
same,IC50,[13],> 10 µM
same,IC50,[14],> 10 µM
same,IC50,[15],> 10 µM
same,IC50,[16],> 10 µM
same,IC50,[17],> 10 µM
same,IC50,[18],> 10 µM
same,IC50,[19],> 10 µM
same,IC50,[20],> 10 µM
same,IC50,[21],> 10 µM
same,IC50,[22],> 10 µM
same,IC50,[23],> 10 µM
same,IC50,[24],> 10 µM
same,IC50,[25],> 10 µM
same,IC50,[26],> 10 µM
same,IC50,[27],> 10 µM
same,IC50,[28],> 10 µM
same,IC50,[29],> 10 µM
same,IC50,[30],> 10 µM
same,IC50,[31],> 10 µM
same,IC50,[32],> 10 µM
same,IC50,[33],> 10 µM
same,IC50,[34],> 10 µM
same,IC50,[35],> 10 µM
same,IC50,[36],> 10 µM
same,IC50,[37],> 10 µM
same,IC50,[38],> 10 µM
same,IC50,[39],> 10 µM
same,IC50,[40],> 10 µM
same,IC50,[41],4.58 µM
same,IC50,[42],> 10 µM
same,IC50,[43],> 10 µM
same,IC50,[44],> 10 µM
same,IC50,[45],> 10 µM
same,IC50,[46],> 10 µM
same,IC50,[47],> 10 µM
COc1ccc(-c2ccc3c(N4CCOC[C@@H]4C)nc(N4CCOC[C@@H]4C)nc3n2)cc1CO [AZD-8055],IC50,[1],0.405 µM
same,IC50,[2],1.65 µM
same,IC50,[3],> 2 µM
same,IC50,[4],> 2 µM
same,IC50,[5],0.662 µM
same,IC50,[6],> 2 µM
same,IC50,[7],> 2 µM
same,IC50,[8],> 2 µM
same,IC50,[9],0.752 µM
same,IC50,[10],> 2 µM
same,IC50,[11],0.446 µM
same,IC50,[12],> 2 µM
same,IC50,[13],0.698 µM
same,IC50,[14],1.52 µM
same,IC50,[15],0.824 µM
same,IC50,[16],> 2 µM
same,IC50,[17],0.865 µM
same,IC50,[18],> 2 µM
same,IC50,[19],1.37 µM
same,IC50,[20],0.366 µM
same,IC50,[21],1.03 µM
same,IC50,[48],1.57 µM
same,IC50,[22],> 2 µM
same,IC50,[23],0.576 µM
same,IC50,[24],> 2 µM
same,IC50,[25],> 2 µM
same,IC50,[26],> 2 µM
same,IC50,[27],0.959 µM
same,IC50,[28],0.937 µM
same,IC50,[49],0.0406 µM
same,IC50,[29],1.33 µM
same,IC50,[30],1.97 µM
same,IC50,[31],0.274 µM
same,IC50,[32],> 2 µM
same,IC50,[33],0.974 µM
same,IC50,[34],0.0795 µM
same,IC50,[35],> 2 µM
same,IC50,[36],0.684 µM
same,IC50,[37],0.971 µM
same,IC50,[38],0.523 µM
same,IC50,[39],> 2 µM
same,IC50,[40],1.5 µM
same,IC50,[41],0.18 µM
same,IC50,[42],0.888 µM
same,IC50,[43],1.86 µM
same,IC50,[44],> 2 µM
same,IC50,[46],0.933 µM
same,IC50,[47],1.6 µM
same,IC50,[50],0.0657 µM
COc1cc(F)c(F)c(Nc2ccc(I)cc2F)c1NS(=O)(=O)C1(CC(O)CO)CC1 (stereo not given),IC50,[1],> 5 µM
same,IC50,[2],4.9 µM
same,IC50,[3],> 5 µM
same,IC50,[4],> 5 µM
same,IC50,[5],3.4 µM
same,IC50,[6],> 5 µM
same,IC50,[7],> 5 µM
same,IC50,[8],> 5 µM
same,IC50,[9],0.12 µM
same,IC50,[10],> 5 µM
same,IC50,[11],0.158 µM
same,IC50,[12],2.17 µM
same,IC50,[13],> 5 µM
same,IC50,[14],2.42 µM
same,IC50,[15],0.868 µM
same,IC50,[16],> 5 µM
same,IC50,[17],1.56 µM
same,IC50,[18],> 5 µM
same,IC50,[19],> 5 µM
same,IC50,[20],> 5 µM
same,IC50,[21],> 5 µM
same,IC50,[48],0.107 µM
same,IC50,[22],> 5 µM
same,IC50,[23],0.758 µM
same,IC50,[24],> 5 µM
same,IC50,[25],> 5 µM
same,IC50,[26],> 5 µM
same,IC50,[27],3.85 µM
same,IC50,[28],> 5 µM
same,IC50,[49],0.103 µM
same,IC50,[29],> 5 µM
same,IC50,[30],> 5 µM
same,IC50,[31],> 5 µM
same,IC50,[32],> 5 µM
same,IC50,[33],3.8 µM
same,IC50,[34],> 5 µM
same,IC50,[35],> 5 µM
same,IC50,[36],4.52 µM
same,IC50,[37],2.45 µM
same,IC50,[38],0.415 µM
same,IC50,[39],4.15 µM
same,IC50,[40],> 5 µM
same,IC50,[41],0.318 µM
same,IC50,[42],1.6 µM
same,IC50,[43],> 5 µM
same,IC50,[44],> 5 µM
same,IC50,[46],> 5 µM
same,IC50,[47],> 5 µM
same,IC50,[50],0.399 µM
